The text below walks through data of patent US12673947B2 (Cytosinlab Therapeutics Co., Ltd., priority 2020, dated 2026).

The test system of test [1] is MV4;11 cells. The test is described as follows: MV4;11 in vitro inhibition of proliferation assay (CellTiter-Glo, 72 hours). In kind it is cell-based. Particulars: Homo sapiens, MV4-11, 72 h, IC50 class, read-out: Inhibitory activity of cell proliferation MV4;11. A digest of the protocol: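 MV4;11 cells in IMDM/10% FBS, 2000 per well, were exposed to 9-point 3-fold DMSO dilutions from 10 uM (final DMSO 0.3%) in triplicate for 72 hours at 37° C., 5% CO2. Viability was read by CellTiter-Glo luminescence, and IC50 came from a four-parameter fit of inhibition.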

Test [2] addresses T1, FLT3 (Homo sapiens, UniProt P36888).
T1 construct: purchased Carna 08-145
T1 sequence (P36888 27-993): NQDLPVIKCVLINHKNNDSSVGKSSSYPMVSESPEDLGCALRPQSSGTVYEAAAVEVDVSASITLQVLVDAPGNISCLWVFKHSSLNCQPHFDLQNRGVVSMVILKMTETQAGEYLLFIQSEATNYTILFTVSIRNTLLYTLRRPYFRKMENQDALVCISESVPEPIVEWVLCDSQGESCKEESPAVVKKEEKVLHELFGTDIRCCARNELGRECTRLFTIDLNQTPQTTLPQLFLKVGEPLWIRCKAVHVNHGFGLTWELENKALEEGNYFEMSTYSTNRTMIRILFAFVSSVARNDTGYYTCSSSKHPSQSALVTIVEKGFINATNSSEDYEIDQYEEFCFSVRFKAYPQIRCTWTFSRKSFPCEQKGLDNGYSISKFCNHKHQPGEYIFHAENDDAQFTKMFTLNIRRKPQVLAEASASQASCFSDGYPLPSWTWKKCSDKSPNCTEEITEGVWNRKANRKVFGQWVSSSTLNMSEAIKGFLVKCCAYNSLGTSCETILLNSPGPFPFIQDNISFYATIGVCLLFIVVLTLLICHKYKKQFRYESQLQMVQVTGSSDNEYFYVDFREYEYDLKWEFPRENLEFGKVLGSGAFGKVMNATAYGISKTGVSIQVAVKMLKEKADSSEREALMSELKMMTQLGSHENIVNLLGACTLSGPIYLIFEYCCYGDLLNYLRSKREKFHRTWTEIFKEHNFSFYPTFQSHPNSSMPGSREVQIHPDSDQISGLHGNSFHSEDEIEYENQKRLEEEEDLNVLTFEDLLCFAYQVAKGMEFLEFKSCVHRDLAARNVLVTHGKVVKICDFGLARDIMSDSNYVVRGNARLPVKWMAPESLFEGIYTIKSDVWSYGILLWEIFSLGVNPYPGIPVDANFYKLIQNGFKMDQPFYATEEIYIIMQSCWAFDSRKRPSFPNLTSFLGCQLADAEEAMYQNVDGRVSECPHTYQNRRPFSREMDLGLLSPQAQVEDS
Description: FLT3 kinase in vitro inhibitory activity experiment (Caliper mobility shift, conversion rate). The class given is biochemical. Particulars: IC50 class, read-out: Enzyme activity FLT3. The procedure, abridged: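 FLT3 was pre-incubated with compound for 10 min at room temperature, then the reaction was started with ATP plus Kinase substrate 2 and run 30 min at room temperature before stop solution. Substrate conversion was read by Caliper mobility shift.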

A value given as a limit tells only on which side of the number the result lay.

As to `CCc1nc2c(N)ncc(-c3cnn(C4CCN(C(C)C)CC4)c3)c2nc1N[C@@H]1CCC[C@H](O)C1` [Compound 260], the IC50 in test [1] and in test [2] was no more than 10 nM in each case.

Take `CCc1nc2c(N)ncc(-c3cnn(C4CCN(C)CC4)c3)c2nc1N1CCC(O)C1` (stereo not shown) [Compound 261]: the IC50 in test [1] is 10 to 100 nM; in test [2] it was no more than 10 nM.

On to `CCc1nc2c(N)ncc(-c3ccc(N4C[C@@H](C)O[C@@H](C)C4)c(OC)c3)c2nc1N[C@@H]1CC[C@H](O)C1` [Compound 265], for which the IC50 is 10 to 100 nM in test [1] and no more than 10 nM in test [2].

Consider `CCc1nc2c(N)ncc(-c3ccc(N4CC5CCC(C4)O5)c(OC)c3)c2nc1N[C@@H]1CC[C@H](O)C1` [Compound 266], for which the IC50 in test [1] is 10 to 100 nM; in test [2] it was no more than 10 nM.

Turning to `CCc1nc2c(N)ncc(-c3ccc(N4C[C@H](C)O[C@@H](C)C4)c(OC)c3)c2nc1N[C@@H]1CC[C@H](O)C1` [Compound 267], the IC50 is 10 to 100 nM in test [1] and no more than 10 nM in test [2].

Take `CCc1nc2c(N)ncc(-c3ccc(N4CCC(N5CCN(C)CC5)CC4)c(C(F)F)c3)c2nc1NC1CCOCC1` [Compound 268]: the IC50 in test [1] was 10 to 100 nM; in test [2] it was no more than 10 nM.

`CCc1nc2c(N)ncc(-c3cnn(-c4ncncc4C)c3)c2nc1N[C@@H]1CC[C@H](O)C1` [Compound 269, (1S,3R)-3-((5-amino-3-ethyl-8-(1-(5-methylpyrimidin-4-yl)-1H-pyrazol-4-yl)pyridino[3,4-b]pyrazin-2-yl)amino)cyclopentan-1-ol]: the IC50 in test [1] and in test [2] was no more than 10 nM each time.

With `CCc1nc2c(N)ncc(-c3cnn(-c4cc(C)nc(C)n4)c3)c2nc1N[C@@H]1CC[C@H](O)C1` [Compound 270], the IC50 is 10 to 100 nM in test [1] and no more than 10 nM in test [2].

Regarding `CCc1nc2c(N)ncc(-c3cnn(-c4cccc(C)n4)c3)c2nc1N[C@@H]1CC[C@H](O)C1` [Compound 271], the IC50 in test [1] is 10 to 100 nM; in test [2], no more than 10 nM.

Consider `CCc1nc2c(N)ncc(-c3cnn(-c4ccnc(C)c4)c3)c2nc1N[C@@H]1CC[C@H](O)C1` [Compound 272], for which the IC50 in test [1] and in test [2] was no more than 10 nM in each case.

Regarding `CCc1nc2c(N)ncc(-c3cnn(-c4ccn(C(C)C)c(=O)c4)c3)c2nc1N[C@@H]1CC[C@H](O)C1` [Compound 273], the IC50 in test [1] and in test [2] was no more than 10 nM throughout.

As for `CCc1nc2c(N)ncc(-c3cnn(-c4ccnc(C(F)(F)F)n4)c3)c2nc1N[C@@H]1CC[C@H](O)C1` [Compound 274], the IC50 is 10 to 100 nM in test [1] and no more than 10 nM in test [2].

`CCc1nc2c(N)ncc(-c3cnn(-c4ccc(OC(C)C)nc4)c3)c2nc1N[C@@H]1CC[C@H](O)C1` [Compound 275]: the IC50 in test [1] was 10 to 100 nM; in test [2] it was no more than 10 nM.

For the compound `CCc1nc2c(N)ncc(-c3cnn(-c4ccc(C(C)(C)O)cn4)c3)c2nc1N[C@@H]1CC[C@H](O)C1` [Compound 276], the IC50 in test [1] and in test [2] was no more than 10 nM throughout.

`CCc1nc2c(N)ncc(-c3cnn(-c4ccc(C5CCCCC5)cc4)c3)c2nc1N[C@@H]1CC[C@H](O)C1` [Compound 277]: the IC50 in test [1] lay within 100 to 500 nM; in test [2] it was 10 to 100 nM.

Turning to `CCc1nc2c(N)ncc(-c3cnn(-c4ccc(C5CCNCC5)cc4)c3)c2nc1N[C@@H]1CC[C@H](O)C1` [Compound 278], the IC50 in test [1] and in test [2] was no more than 10 nM throughout.

`CCc1nc2c(N)ncc(-c3cnn(-c4ccc(Cl)c(C)c4)c3)c2nc1N[C@@H]1CC[C@H](O)C1` [Compound 279]: the IC50 in test [1] and in test [2] was 10 to 100 nM in each case.

As for `CCc1nc2c(N)ncc(-c3cnn(-c4ccnc(C)n4)c3)c2nc1NC1CCOCC1` [Compound 280], the IC50 in test [1] and in test [2] was no more than 10 nM each time.

For the compound `CCc1nc2c(N)ncc(-c3cnn(-c4ccnc(C)n4)c3)c2nc1N[C@H]1CCOC1` [Compound 281], the IC50 in test [1] and in test [2] was 10 to 100 nM throughout.

With `CCc1nc2c(N)ncc(-c3cnn(C4CCS(=O)(=O)CC4)c3)c2nc1N[C@@H]1CC[C@H](O)C1` [Compound 282], the IC50 in test [1] was 10 to 100 nM; in test [2], no more than 10 nM.

As for `CCc1nc2c(N)ncc(-c3cnn(C4CCc5cc(F)cc(F)c5CC4)c3)c2nc1N[C@@H]1CC[C@H](O)C1` (stereo partly shown) [Compound 283], the results for the IC50 in test [1] and in test [2] were 10 to 100 nM and no more than 10 nM, respectively.

On to `CCc1nc2c(N)ncc(-c3ccc(N4CC5CCC(C4)N5C)c(OC)c3)c2nc1N[C@@H]1CC[C@H](O)C1` [Compound 286, (1S, 3R)-3-((5-amino-3-ethyl-8-(3-methoxy-4-(8-methyl-3,8-diazabicyclo[3.2.1]octyl-3-yl)phenyl)pyridino[3,4-b]pyrazine-2-yl)amino)cyclopentan-1-ol], for which the IC50 in test [1] and in test [2] was no more than 10 nM in each case.

As to `CCc1nc2c(N)ncc(-c3ccc(N4CCC(N5CCN(C)CC5)C(C)C4)c(OC)c3)c2nc1NC1CCOCC1` (stereo not shown) [Compound 287, 3-ethyl-8-(3-methoxy-4-(3-methyl-4-(4-methylpiperazine-1-yl)piperidine-1-yl)phenyl)-N2-(tetrahydro-2H-pyran-4-yl)pyridino[3,4-b]pyrazine-2,5-diamine], the IC50 was 10 to 100 nM in test [1] and no more than 10 nM in test [2].

For the compound `CCc1nc2c(N)ncc(-c3ccc(-c4ccnc(C)n4)c(OC)c3)c2nc1N[C@@H]1CC[C@H](O)C1` [Compound 288, (1S,3R)-3-((5-amino-3-ethyl-8-(3-methoxy-4-(2-methylpyrimidine-4-yl)phenyl)pyrido[3,4-b]pyrazine-2-yl)amino)cyclopentan-1-ol], the IC50 in test [1] is 10 to 100 nM; in test [2], no more than 10 nM.

On to `CCc1nc2c(N)ncc(-c3cnn(-c4ccc(C5CCN(C)CC5)cc4)c3)c2nc1N[C@@H]1CC[C@H](O)C1` [Compound 290], for which the IC50 in test [1] and in test [2] was no more than 10 nM in each case.

For `CCc1nc2c(N)ncc(-c3cnn(-c4ccc(Cl)cc4)c3)c2nc1N[C@@H]1CC[C@H](O)C1` [Compound 291], the IC50 in test [1] is 10 to 100 nM; in test [2], no more than 10 nM.

For `CCc1nc2c(N)ncc(-c3cnn(-c4ccc(OC5CCN(C)CC5)cc4)c3)c2nc1N[C@@H]1CC[C@H](O)C1` [Compound 292, (1S, 3R)-3-((5-amino-3-ethyl-8-(1-(4-((1-methylpiperidin-4-yl)oxy)phenyl)-1H-pyrazol-4-yl)pyridino[3,4-b]pyrazin-2-yl)amino)cyclopentan-1-ol], the IC50 in test [1] is 100 to 500 nM; in test [2], greater than 500 nM.

In the case of `CCc1nc2c(N)ncc(-c3ccc(N4CCC(N5CC6CCC(C5)N6C)CC4)c(OC)c3)c2nc1NC1CCOCC1` [Compound 293, 3-ethyl-8-(3-methoxy-4-(4-(8-methyl-3,8-diazabicyclo[3.2.1]octan-3-yl)piperidin-1-yl)phenyl)-N2-(tetrahydro-2H-pyran-4-yl)pyridino [3,4-b]pyrazin-2,5-diamine], the IC50 in test [1] was 10 to 100 nM; in test [2] it was no more than 10 nM.

Take `CCc1nc2c(N)ncc(-c3cnn(-c4ncccn4)c3)c2nc1N[C@@H]1CC[C@H](O)C1` [Compound 294]: the IC50 in test [1] and in test [2] was no more than 10 nM throughout.

Consider `CCc1nc2c(N)ncc(-c3cnn(-c4cncnc4)c3)c2nc1N[C@@H]1CC[C@H](O)C1` [Compound 295], for which the IC50 in test [1] and in test [2] was no more than 10 nM throughout.

As for `CCc1nc2c(N)ncc(-c3cnn(-c4ccn(C)c(=O)c4)c3)c2nc1N[C@@H]1CC[C@H](O)C1` [Compound 296], the IC50 in test [1] and in test [2] was no more than 10 nM throughout.

As for `CCc1nc2c(N)ncc(-c3cnn(-c4cc(C)n(C)c(=O)c4)c3)c2nc1N[C@@H]1CC[C@H](O)C1` [Compound 299], the IC50 in test [1] is 10 to 100 nM; in test [2], no more than 10 nM.

Turning to `CCc1nc2c(N)ncc(-c3cnn(-c4ccc(=O)n(C)c4)c3)c2nc1N[C@@H]1CC[C@H](O)C1` [Compound 301], the IC50 in test [1] and in test [2] was no more than 10 nM each time.

Take `CCc1nc2c(N)ncc(-c3cnn(-c4cccnc4)c3)c2nc1N[C@@H]1CC[C@H](O)C1` [Compound 302]: the IC50 in test [1] and in test [2] was no more than 10 nM in each case.

Turning to `CCc1nc2c(N)ncc(-c3cnn(-c4ccc(C)cc4)c3)c2nc1N[C@@H]1CC[C@H](O)C1` [Compound 303], the results for the IC50 in test [1] and in test [2] were 10 to 100 nM and no more than 10 nM, respectively.
